Earlier results as cited in article PMC5102340 (Advanced functional materials, 2016).
Read-outs that look alike come from different tables or passages of the source.

- pKa1: ≈ 9.4
- pKa2: ≈ 13.7
- pKa1 (listed as catechol): 9.4
SMILES: Oc1ccccc1O [Catechol]
